Reference: patent US9345740B2, “IAP antagonists” (BRISTOL-MYERS SQUIBB COMPANY, priority 2012, dated 2016)

Legend:
Format in all cases: binding
[1] = target: XIAP BIR2-3 (His-BIR2-3 (125-356, C202A/C213G, XIAP)) (Homo sapiens (Human), UniProt P98170, C202A/C213G)
[2] = target: XIAP BIR3 (His-BIR3 (241-356, XIAP)) (Homo sapiens (Human), UniProt P98170)
[3] = target: XIAP BIR3 (N-His-Tb-BIR3(241-356, XIAP)) (Homo sapiens (Human), UniProt P98170)
[4] = target: XIAP BIR2 (His-BIR2 (124-240/C202A/C213G)) (Homo sapiens (Human), UniProt P98170, C202A/C213G); assay: XIAP-BIR2/SMAC Peptide AlphaScreen Assay; conditions: footnote *: XIAP BIR2 alpha screen (printed in the BIR2-3 column)
XIAP BIR2 (His-BIR2 (124-240/C202A/C213G)), sequence (P98170 whole entry C202A/C213G, looked up): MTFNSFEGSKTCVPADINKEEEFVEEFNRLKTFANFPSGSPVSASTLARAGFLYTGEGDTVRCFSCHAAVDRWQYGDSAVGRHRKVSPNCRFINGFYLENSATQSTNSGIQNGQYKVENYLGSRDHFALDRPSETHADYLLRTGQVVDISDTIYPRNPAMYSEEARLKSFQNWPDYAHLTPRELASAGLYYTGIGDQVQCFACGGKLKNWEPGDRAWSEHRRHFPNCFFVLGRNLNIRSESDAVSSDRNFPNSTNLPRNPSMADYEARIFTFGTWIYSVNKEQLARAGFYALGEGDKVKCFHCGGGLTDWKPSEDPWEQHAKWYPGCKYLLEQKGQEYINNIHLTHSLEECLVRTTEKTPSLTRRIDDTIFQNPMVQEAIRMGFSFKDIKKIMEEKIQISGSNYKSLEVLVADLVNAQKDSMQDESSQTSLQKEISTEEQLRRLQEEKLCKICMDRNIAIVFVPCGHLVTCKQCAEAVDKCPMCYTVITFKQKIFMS
Description: C. XIAP-BIR2/SMAC Peptide AlphaScreen Assay
Assays were performed in white, flat-bottom, 384-well ProxiPlates (Perkin Elmer). The final assay volume was 10 μL prepared from additions of His-BIR2 (124-240/C202A/C213G), Biotinylated SMAC peptide, and test compounds in assay buffer consisting of 25 mM Hepes, 100 mM NaCl, 0.1% BSA, and 5 mM CaCl2. The reaction was incubated at room temperature for 60 minutes. After 60 minutes, 2.5 μL of Alphascreen detection reagent (Perkin Elmer) was added to the reaction mixture and incubated at room temperature in the dark for 120 minutes. The Alphascreen signal generated by the reaction was detected on the Envision Plate Reader Inhibition data were calculated from an Alphascreen signal generated by the no protein control reactions for 100% inhibition and vehicle-only reactions for 0% inhibition. The final concentration of reagents in the assay was 50 nM His-BIR2 (124-240/C202A/C213G), 50 nM.
Biotinylated SMAC peptide, 4 μg/mL Alphascreen detection reagents, and 0.5% DMSO. Dose response curves were generated to determine the concentration required for inhibiting 50% of the activity (IC50). Compounds were dissolved at 10 mM in dimethylsulfoxide (DMSO) and evaluated at eleven concentrations. IC50 values were derived by non-linear regression analysis.

XIAP BIR2-3 (His-BIR2-3 (125-356, C202A/C213G, XIAP)), sequence (P98170 whole entry C202A/C213G, looked up): as above
XIAP BIR3 (His-BIR3 (241-356, XIAP)), sequence (P98170 whole entry, looked up): as the sequence (P98170 whole entry C202A/C213G, looked up) above, with A202C, G213C counted along it
XIAP BIR3 (N-His-Tb-BIR3(241-356, XIAP)), sequence (P98170 whole entry, looked up): as the sequence (P98170 whole entry C202A/C213G, looked up) above, with A202C, G213C counted along it

SMILES	IC50 [1]	IC50 [2]	IC50 [3]	IC50 [4]
CN[C@@H](C)C(=O)N[C@@H](Cc1ccc(C(=O)N[C@H]2C[C@@H](C(=O)N[C@@H]3CCCc4ccccc43)N(C(=O)[C@@H](NC(=O)[C@H](C)NC)C(C)(C)C)C2)cc1)C(=O)N1C[Si](C)(C)C[C@H]1C(=O)N[C@@H]1CCCc2ccccc21 [Example 10, (R)-1-((S)-3-(4-(((3S,5S)-1-((S)-3,3-dimethyl-2-((S)-2-(methylamino)propanamido)butanoyl)-5-(((R)-1,2,3,4-tetrahydronaphthalen-1-yl)carbamoyl)pyrrolidin-3-yl)carbamoyl)phenyl)-2-((S)-2-(methylamino)propanamido)propanoyl)-3,3-dimethyl-N-((R)-1,2,3,4-tetrahydronaphthalen-1-yl)-1,3-azasilolidine-5-carboxamide]	5 nM	8 nM	–	–
CN[C@@H](C)C(=O)N[C@@H](Cc1ccc(C#CC(=O)N[C@H]2C[C@@H](C(=O)N[C@@H]3CCCc4ccccc43)N(C(=O)[C@@H](NC(=O)[C@H](C)NC)C(C)(C)C)C2)cc1)C(=O)N1C[Si](C)(C)C[C@H]1C(=O)N[C@@H]1CCCc2ccccc21 [Example 8, (R)-1-((S)-3-(4-(3-(((3S,5S)-1-((S)-3,3-Dimethyl-2-((S)-2-(methylamino)propanamido)butanoyl)-5-(((R)-1,2,3,4-tetrahydronaphthalen-1-yl)carbamoyl)pyrrolidin-3-yl)amino)-3-oxoprop-1-yn-1-yl)phenyl)-2-((S)-2-(methylamino)propanamido)propanoyl)-3,3-dimethyl-N—((R)-1,2,3,4-tetrahydronaphthalen-1-yl)-1,3-azasilolidine-5-carboxamide]	4 nM	3 nM	–	–
CN[C@@H](C)C(=O)NC(Cc1ccc(C(=O)Nc2ccc(C(=O)N[C@H]3C[C@@H](C(=O)NC4CCCc5ccccc54)N(C(=O)[C@@H](NC(=O)[C@H](C)NC)C(C)(C)C)C3)cc2)cc1)C(=O)N1C[Si](C)(C)C[C@H]1C(=O)NC1CCCc2ccccc21 (stereo partly drawn) [Example 4]	4 nM	14 nM	–	–
CC[C@H](NC)C(=O)N[C@@H](Cc1ccc(NC(=O)c2ccc(C(=O)N[C@H]3C[C@@H](C(=O)N[C@@H]4CCCc5ccccc54)N(C(=O)[C@@H](NC(=O)[C@H](C)NC)C(C)(C)C)C3)cc2)cc1)C(=O)N1C[Si](C)(C)C[C@H]1C(=O)N[C@@H]1CCCc2ccccc21 [Example 11, N1-((3S,5S)-1-((S)-3,3-dimethyl-2-((S)-2-(methylamino)propanamido)butanoyl)-5-(((R)-1,2,3,4-tetrahydronaphthalen-1-yl)carbamoyl)pyrrolidin-3-yl)-N4-(4-((S)-3-((R)-3,3-dimethyl-5-(((R)-1,2,3,4-tetrahydronaphthalen-1-yl)carbamoyl)-1,3-azasilolidin-1-yl)-2-((S)-2-(methylamino)butanamido)-3-oxopropyl)phenyl)terephthalamide]	6 nM	30 nM	–	–
CN[C@@H](C)C(=O)N[C@@H](Cc1ccc(CCc2ccc(C(=O)N[C@H]3C[C@@H](C(=O)N[C@@H]4CCCc5ccccc54)N(C(=O)[C@@H](NC(=O)[C@H](C)NC)C(C)(C)C)C3)cc2)cc1)C(=O)N1C[Si](C)(C)C[C@H]1C(=O)N[C@@H]1CCCc2ccccc21 [Example 6, (R)-1-((S)-3-(4-(4-(((3S,5S)-1-((S)-3,3-Dimethyl-2-((S)-2-(methylamino)propanamido)butanoyl)-5-(((R)-1,2,3,4-tetrahydronaphthalen-1-yl)carbamoyl)pyrrolidin-3-yl)carbamoyl)phenethyl)phenyl)-2-((S)-2-(methylamino)propanamido)propanoyl)-3,3-dimethyl-N—((R)-1,2,3,4-tetrahydronaphthalen-1-yl)-1,3-azasilolidine-5-carboxamide]	205 nM	84 nM	–	–
CN[C@@H](C)C(=O)N[C@@H](Cc1ccc(C#Cc2ccc(C(=O)N[C@H]3C[C@@H](C(=O)N[C@@H]4CCCc5ccccc54)N(C(=O)[C@@H](NC(=O)[C@H](C)NC)C(C)(C)C)C3)cc2)cc1)C(=O)N1C[Si](C)(C)C[C@H]1C(=O)N[C@@H]1CCCc2ccccc21 [Example 5, (R)-1-((S)-3-(4-((4-(((3S,5S)-1-((S)-3,3-Dimethyl-2-((S)-2-(methylamino)propanamido)butanoyl)-5-(((R)-1,2,3,4-tetrahydronaphthalen-1-yl)carbamoyl)pyrrolidin-3-yl)carbamoyl)phenyl)ethynyl)phenyl)-2-((S)-2-(methylamino)propanamido)propanoyl)-3,3-dimethyl-N—((R)-1,2,3,4-tetrahydronaphthalen-1-yl)-1,3-azasilolidine-5-carboxamide]	341 nM	103 nM	–	–
CN[C@@H](C)C(=O)N[C@H](C(=O)N1C[C@@H](NC(=O)c2ccc(CN(C(=O)[C@@H]3C[Si](C)(C)CN3C(=O)[C@@H](NC(=O)[C@H](C)NC)C(C)(C)C)[C@H](C)c3ccccc3F)cc2)C[C@H]1C(=O)N[C@@H]1CCCc2ccccc21)C(C)(C)C [Example 9, (R)-1-((S)-3,3-Dimethyl-2-((S)-2-(methylamino)propanamido)butanoyl)-N-(4-(((3S,5S)-1-((S)-3,3-dimethyl-2-((S)-2-(methylamino)propanamido)butanoyl)-5-(((R)-1,2,3,4-tetrahydronaphthalen-1-yl)carbamoyl)pyrrolidin-3-yl)carbamoyl)benzyl)-N—((R)-1-(2-fluorophenyl)ethyl)-3,3-dimethyl-1,3-azasilolidine-5-carboxamide]	9 nM	52 nM	–	–
CN[C@@H](C)C(=O)NC(Cc1ccc(NC(=O)c2ccc(CO[C@H]3C[C@@H](C(=O)NC4CCCc5ccccc54)N(C(=O)[C@@H](NC(=O)[C@H](C)NC)C(C)(C)C)C3)cc2)cc1)C(=O)N1C[Si](C)(C)C[C@H]1C(=O)NC1CCCc2ccccc21 (stereo partly drawn) [Example 3, (R)-1-((S)-3-(4-(4-((((3S,5S)-1-((S)-3,3-Dimethyl-2-(S)-2-(methylamino)propanamido)butanoyl)-5-(((R)-1,2,3,4-tetrahydronaphthalen-1-yl)carbamoyl)pyrrolidin-3-yl)oxy)methyl)benzamido)phenyl)-(2-((S)-2-(methylamino)propanamido)propanoyl)-3,3-dimethyl-N—((R)-1,2,3,4-tetrahydronaphthalen-1-yl)-1,3-azasilolidine-5-carboxamide]	5 nM	14 nM	–	–
CN[C@@H](C)C(=O)NC(Cc1ccc(-c2ccc(C(=O)NC3C[C@@H](C(=O)NC4CCCc5ccccc54)N(C(=O)[C@@H](NC(=O)[C@H](C)NC)C(C)(C)C)C3)cc2)cc1)C(=O)N1C[Si](C)(C)C[C@H]1C(=O)NC1CCCc2ccccc21 (stereo partly drawn) [Example 7]	307 nM	93 nM	–	–
CN[C@@H](C)C(=O)N[C@@H](Cc1ccc(NC(=O)N[C@H]2C[C@@H](C(=O)N[C@@H]3CCCc4ccccc43)N(C(=O)[C@@H](NC(=O)[C@H](C)NC)C(C)(C)C)C2)cc1)C(=O)N1C[Si](C)(C)C[C@H]1C(=O)N[C@@H]1CCCc2ccccc21 [Example 2, (R)-1-((S)-3-(4-(3-((3S,5S)-1-((S)-3,3-Dimethyl-2-((S)-2-(methylamino)propanamido)butanoyl)-5-(((R)-1,2,3,4-tetrahydronaphthalen-1-yl)carbamoyl)pyrrolidin-3-yl)ureido)phenyl)-2-((S)-2-(methylamino)propanamido)propanoyl)-3,3-dimethyl-N—((R)-1,2,3,4-tetrahydronaphthalen-1-yl)-1,3-azasilolidine-5-carboxamide]	6 nM	16 nM	–	–
CN[C@@H](C)C(=O)N[C@H](C(=O)N1C[C@@H](NC(=O)c2ccc(CN(C(=O)[C@@H]3C[Si](C)(C)CN3C(=O)[C@@H](NC(=O)[C@H](C)NC)C(C)(C)C)[C@H](C)c3cccc(F)c3F)cc2)C[C@H]1C(=O)N[C@@H]1CCCc2ccccc21)C(C)(C)C [Example 12, (R)-N-((R)-1-(2,3-Difluorophenyl)ethyl)-1-((S)-3,3-dimethyl-2-((S)-2-(methylamino)propanamido)butanoyl)-N-(4-(((3S,5S)-1-((S)-3,3-dimethyl-2-((S)-2-(methylamino)propanamido)butanoyl)-5-(((R)-1,2,3,4-tetrahydronaphthalen-1-yl)carbamoyl)pyrrolidin-3-yl)carbamoyl)benzyl)-3,3-dimethyl-1,3-azasilolidine-5-carboxamide]	–	–	170 nM	590 nM
CN[C@@H](C)C(=O)NC(Cc1ccc(NC(=O)c2ccc(C(=O)N[C@H]3C[C@@H](C(=O)NC4CCCc5ccccc54)N(C(=O)[C@@H](NC(=O)[C@H](C)NC)C(C)(C)C)C3)cc2)cc1)C(=O)N1C[Si](C)(C)C[C@H]1C(=O)NC1CCCc2ccccc21 (stereo partly drawn) [Example 1]	4 nM	12 nM	–	–
